This is an account of results in ChEMBL document CHEMBL3526136, “Structure and function of cytochromes P450 2B: from mechanism-based inactivators to X-ray crystal structures and back” (Drug Metab Dispos, 2011).

The assay addresses Cytochrome P450 2B4 (Oryctolagus cuniculus) (UniProt P00178). In words: Binding affinity to C-terminal His4-tagged CYP2B4 dH/H226Y mutant (rabbit) after 2 hrs by isothermal titration calorimetric analysis.
What is called Kd is the free concentration of one partner at which half of the binding sites on the other are occupied at equilibrium, for simple one-to-one binding. `c1ccc(-n2ccnc2)cc1` had an equilibrium dissociation constant (Kd) of 300 nM.
For `c1ccc(Cn2ccnc2)cc1` [BENZYLIMIDAZOLE], binding was put at a Kd of 300 nM.
Regarding `Clc1ccc(-c2cnc[nH]2)cc1`, binding was put at a Kd of 300 nM.
`Clc1ccc(-n2ccnc2)cc1` showed a dissociation constant Kd of 300 nM.
Under `c1ccc(COCCn2ccnc2)cc1` stands 300 nM.
